Data: ChEMBL document CHEMBL1125269, “Design of enzyme inhibitors using iterative protein crystallographic analysis” (J Med Chem, 1991)

How the values were obtained:
GC3/MTK- [1] = assay: Inhibition of cellular growth against human adenocarcinoma (GC3/M TK-) deficient in thymidine kinase
Thymidylate synthase [2] = biological target: Thymidylate synthase (Escherichia coli, UniProt C3SWJ7)
Description: Inhibition of Thymidylate synthase of Escherichia coli (Ki)

CCRF-CEM [3] = assay: Inhibition of cellular growth against human (CCRF-CEM) leukemias (ATCC) deficient in thymidine kinase.
L1210 [4] = assay: Inhibition of cellular growth against mouse (L1210) deficient in thymidine kinase.
GC3/MTK- [5] = assay: Inhibition of cellular growth against human adenocarcinoma (GC3/M TK-) deficient in thymidine kinase.
L1210 [6] = assay: Inhibition of cellular growth against mouse (L1210) deficient in thymidine kinase
CCRF-CEM [7] = assay: Inhibition of cellular growth against human (CCRF-CEM) leukemias (ATCC) deficient in thymidine kinase
[8] = biological target: Thymidylate synthase (Escherichia coli) (UniProt C3SWJ7)
Chain of Thymidylate synthase (Escherichia coli) (C3SWJ7 1-264): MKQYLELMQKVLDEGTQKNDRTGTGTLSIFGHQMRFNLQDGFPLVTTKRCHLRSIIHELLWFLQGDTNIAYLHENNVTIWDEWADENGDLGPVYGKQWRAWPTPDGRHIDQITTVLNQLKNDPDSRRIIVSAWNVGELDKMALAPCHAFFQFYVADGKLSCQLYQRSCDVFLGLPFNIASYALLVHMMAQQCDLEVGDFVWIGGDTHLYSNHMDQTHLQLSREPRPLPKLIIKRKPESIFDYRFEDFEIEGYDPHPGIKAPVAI
Description: Inhibition of Thymidylate synthase of Escherichia coli (Kii)

Thymidylate synthase [9] = biological target: Thymidylate synthase (Homo sapiens, UniProt P04818)
Chain of Thymidylate synthase (Homo sapiens, UniProt P04818) (P04818 whole entry): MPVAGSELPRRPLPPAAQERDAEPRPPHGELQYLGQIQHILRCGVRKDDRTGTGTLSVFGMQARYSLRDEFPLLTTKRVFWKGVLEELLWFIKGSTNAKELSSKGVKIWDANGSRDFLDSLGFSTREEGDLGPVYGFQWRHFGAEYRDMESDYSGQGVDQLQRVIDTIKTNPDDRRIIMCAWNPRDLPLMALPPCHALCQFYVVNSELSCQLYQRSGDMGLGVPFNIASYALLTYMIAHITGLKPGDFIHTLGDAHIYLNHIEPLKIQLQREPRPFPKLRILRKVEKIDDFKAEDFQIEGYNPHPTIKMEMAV
Description: Inhibition of human Thymidylate synthase (Ki)

Chain of Thymidylate synthase (Escherichia coli, UniProt C3SWJ7) (C3SWJ7 whole entry): as the sequence (C3SWJ7 1-264) above

Row | SMILES | IC50 (CCRF-CEM [3]) | IC50 (L1210 [4]) | IC50 (GC3/MTK- [5]) | further results
1 | Nc1nc2cc3c(cc2[nH]1)N(Cc1ccc(S(=O)(=O)c2ccccc2)cc1)CCC3 | 3900 nM | 2000 nM |  | IC50 (GC3/MTK- [1]): > 5000 nM; Ki (Thymidylate synthase [2]): 43 nM
2 | CN(Cc1ccc(S(=O)(=O)N2CCNCC2)cc1)c1ccc2c3c(cccc13)C(=O)N2 | 8300 nM | 2300 nM | 25000 nM | 
3 | CN(Cc1ccc(S(=O)(=O)c2ccccc2)cc1)c1ccc2c3c(cccc13)C(=O)N2 |  |  |  | IC50 (GC3/MTK- [1]): > 5000 nM
4 | C#CCN(Cc1ccc2nc(C)nc(O)c2c1)c1ccc(S(=O)(=O)n2ccc3ccccc32)cc1 | 1300 nM | 300 nM | 1500 nM | 
5 | C#CCN(Cc1ccc2nc(C)nc(O)c2c1)c1cccc(C(F)(F)F)c1 |  |  |  | IC50 (GC3/MTK- [1]): > 4300 nM; Ki (Thymidylate synthase [2]): 450 nM; IC50 (L1210 [6]): > 4300 nM; IC50 (CCRF-CEM [7]): > 4300 nM
6 | O=S(=O)(c1ccc(CN2CCCc3cc4[nH]cnc4cc32)cc1)N1CCNCC1 | 11000 nM | 20000 nM | 43000 nM | Ki (Thymidylate synthase [2]): 4900 nM
7 | C#CCN(Cc1ccc2nc(C)nc(O)c2c1)c1ccc(S(=O)(=O)c2ccccc2)c(C(F)(F)F)c1 | 3500 nM | 2000 nM | 7500 nM | 
8 | C#CCN(Cc1ccc2nc(C)nc(O)c2c1)c1ccccc1 |  |  | > 10700 nM | IC50 (L1210 [6]): > 10700 nM; IC50 (CCRF-CEM [7]): > 10700 nM
9 | CCN(Cc1ccc(S(=O)(=O)N2CCNCC2)cc1)c1ccc2c3c(cccc13)C(=O)N2 |  | 6000 nM |  | 

Now from value to molecule, other results behind:

Row | IC50 (CCRF-CEM [3]) | IC50 (L1210 [4]) | SMILES | IC50 (GC3/MTK- [5]) | further results
10 | 1600 nM | 380 nM | CN(Cc1ccc(S(=O)(=O)c2ccccc2)cc1)c1ccc2c3c(cccc13)C(N)=N2 | 4600 nM | 
11 | 2200 nM | 2050 nM | Nc1nc2cc3c(cc2[nH]1)N(Cc1ccc(S(=O)(=O)N2CCNCC2)cc1)CCC3 |  | IC50 (GC3/MTK- [1]): > 50000 nM
12 | 1600 nM | 1000 nM | C#CCN(Cc1ccc2nc(C)nc(O)c2c1)c1ccc(S(=O)(=O)c2ccccc2)cc1 | 1100 nM | 
13 | 43 nM | 59 nM | C#CCN(Cc1ccc2nc(C)nc(O)c2c1)c1ccc(C(=O)NC(CCC(=O)O)C(=O)O)cc1 (centres undefined) | 49 nM | Kii [8]: 0.013 µM; Ki (Thymidylate synthase [2]): 4.8 nM; Ki (Thymidylate synthase [9]): 8.5 nM
14 | 750 nM | 3500 nM | C#CCN(Cc1ccc2[nH]c(N)nc(=O)c2c1)c1ccc(C(=O)NC(CCC(=O)O)C(=O)O)cc1 (centres undefined) | 1400 nM | 
